We go through 4 compounds from US6331551A, “Methods of treating microbial infection and therapeutic formulations therefor” (priority 2000, dated 2001).

Structures are written as SMILES. Values after ≈ are worked out from the molar mass of the structure shown.

One test has as its system Enterobacter aerogens. The test is described as follows: Disk zone of inhibition / antibacterial activity. It is filed as cell-based. Set-up: key to Zone of inhibition: +++: High inhibition; ++: moderate inhibition; +: low inhibition; -: non inhibition. The settings on record: E. aerogens; for MIC: Enterobacter. How it is done: (§1) The following seven bacteria were grown on nutrient agar slants for 48 hours at 37° C.: Enterobacter aerogens, Propionibacterium acnes, Pseudomonas aeruginosa, Escherichia coli, Bacillus subtilis, Agrobacterium tumefaciens, and Staphylococcus aureus.
(§2) A bacterial colony from each of the respective slants was suspended in 1 ml sterile deionized water. 0.1 ml of each cell suspension was evenly spread on nutrient agar plates (10×10^5 cells/ml). After 30 min, sclareol and sclareolide-impregnated disks were placed on bacteria-lawned plates. The sclareol and sclareolide used in this experiment were relatively pure samples (greater than 99% pure). Triplicate disks of (10, 100, 500, and 1000 ug/disk) of each sample was applied on to 6 mm diameter (0.3 mm thickness) filter paper disks and air dried. Controls were prepared with respective solvents. Plates were incubated for 24-48 hr at 37° C. The inhibition zones were measured and recorded after 15 hr, up to 48 hr.
(§3) A summary of the effects of sclareol and sclareolide against the bacteria and fungi tested in Examples 1 and 2 is provided in Table 3. The data is presented as the effect of sclareol and sclareolide on selected microbial cultures, in terms of minimum inhibitory concentration, as measured in μg/ml.

The subject of test [1] is Agrobacterium tumefaciens. Put plainly: Disk zone of inhibition / antibacterial activity. It is filed as cell-based. Set-up: key to Zone of inhibition: +++: High inhibition; ++: moderate inhibition; +: low inhibition; -: non inhibition. The settings on record: A. tumefaciens; for MIC: Agrobacterium tumefaciens. On the procedure:
as §1, §2, §3

For a further test, the system named is Pseudomonas aeruginosa. The test is described as follows: Disk zone of inhibition / antibacterial activity. It is filed as cell-based. Set-up: key to Zone of inhibition: +++: High inhibition; ++: moderate inhibition; +: low inhibition; -: non inhibition. As to conditions: P. aeruginosa; for MIC: Pseudomonas aeruginosa. How it is done: as §1, §2, §3
The next test relates to Bacillus subtilis. Put plainly: Disk zone of inhibition / antibacterial activity. It is filed as cell-based. Set-up: key to Zone of inhibition: +++: High inhibition; ++: moderate inhibition; +: low inhibition; -: non inhibition. The settings on record: for MIC: Bacillus subtilis, B. subtilis; for Zone of inhibition: D. subtilis [sic]. How it is done:
as §1, §2, §3

A further test concerns Escherichia coli. The test is described as follows: Disk zone of inhibition / antibacterial activity. It is filed as cell-based. Set-up: key to Zone of inhibition: +++: High inhibition; ++: moderate inhibition; +: low inhibition; -: non inhibition. As to conditions: E. coli; for MIC: Escherichia coli. On the procedure:
as §1, §2, §3

The next test relates to Propionibacterium acnes. The test is described as follows: Disk zone of inhibition / antibacterial activity. It is filed as cell-based. More on the design: key to Zone of inhibition: +++: High inhibition; ++: moderate inhibition; +: low inhibition; -: non inhibition. As to conditions: P. acnes; for MIC: Cutibacterium acnes. On the procedure: as §1, §2, §3
The next test deals with Staphylococcus aureus. The test is described as follows: Disk zone of inhibition / antibacterial activity. It is filed as cell-based. More on the design: key to Zone of inhibition: +++: High inhibition; ++: moderate inhibition; +: low inhibition; -: non inhibition. The settings on record: S. aureus; for MIC: Staphylococcus aureus. On the procedure: as §1, §2, §3
The test system of the next test is Candida kefyr. The test is described as follows: Antifungal MIC on potato dextrose agar. It is filed as cell-based. The settings on record: Kluyveromyces marxianus, PDA, 26° C., 48 hr up to one week. On the procedure: (§4) The yeast and fungi listed below in Table 2 were grown on potato dextrose agar (PDA) containing different concentrations of sclareol and sclareolide, according to the following method: sclareol or sclareolide (in powder form) was added to pre-measured amounts of PDA medium in petri plates, mixed thoroughly by tilting the petri plate from side to side, and allowed to solidify. The sclareol and […] in preparing the petri plates was of greater than 99% purity. After solidification, the plates were inoculated with 5 mm disks, cut from the outer margin of the actively growing cultures of yeast and fungi and placed in the center of the plate in an inverted position in direct contact with the sclareol/sclareolide impregnated medium. The plates were incubated at 26° C. The plates were monitored periodically to estimate the minimum inhibitory concentration (MIC) based on the growth proliferation from the 5 mm inoculum disk. The results were measured and recorded after 48 hr, up to one week. A summary of the effects of sclareol and sclareolide against the bacteria and fungi tested in Examples 1 and 2 is provided in Table 3. The data is presented as the effect of sclareol and sclareolide on selected microbial cultures, in terms of minimum inhibitory concentration, as measured in μg/ml.

Another test deals with Penicillium notatum. Put plainly: Antifungal MIC on potato dextrose agar. It is filed as cell-based. As to conditions: Penicillium chrysogenum, PDA, 26° C., 48 hr up to one week. How it is done: as §4
A further test deals with Aspergillus flavus. Put plainly: Antifungal MIC on potato dextrose agar. It is filed as cell-based. The settings on record: PDA, 26° C., 48 hr up to one week. On the procedure: as §4
The next test has as its system Saccharomyces cerevisiae. The test is described as follows: Antifungal MIC on potato dextrose agar. It is filed as cell-based. The settings on record: PDA, 26° C., 48 hr up to one week. How it is done: as §4
Test [2] relates to Gram positive bacteria, specifically, S. aureus and P. acnes. Put plainly: Disk antibacterial test, Gram positive bacteria. It is filed as cell-based. On the procedure:
as §1, §2

The next test has as its system bacteria tested. Put plainly: Disk antibacterial test, overall. It is filed as cell-based. The settings on record: in general. On the procedure:
as §1, §2

The next test relates to gram negative acne. As to conditions: oral, subsequent to oral tetracycline or erythromycin; Poli et al. 1988; cited from earlier work.

Consider `CC1(C)CCCC2(C)C1CCC1(C)OC(=O)CC12` (single isomer, unassigned) [Sclareolide, sclareolide], for which the sensitivity to treatment entry is “more sensitive” in the test with Enterobacter aerogens; “least sensitive” in the test with Pseudomonas aeruginosa; “least sensitive” in the test with Escherichia coli; “more sensitive” in the test with Propionibacterium acnes; “more sensitive” in the test with Staphylococcus aureus. The Zone of inhibition result in the test with Enterobacter aerogens (10 ug/disk) was “+”; in the test with Enterobacter aerogens (100 ug/disk) it was “++”; with Enterobacter aerogens (500 ug/disk) it was “+++”; in the test on Enterobacter aerogens (1000 ug/disk), “+++”; in test [1] (10 ug/disk), “+”; in test [1] (100 ug/disk) it was “++”. Also, the Zone of inhibition entry is given as “+++” in test [1] (500 ug/disk); “+++” in test [1] (1000 ug/disk); “-” in the test on Pseudomonas aeruginosa (10 ug/disk); “-” in the test on Pseudomonas aeruginosa (100 ug/disk); “++” in the test with Pseudomonas aeruginosa (500 ug/disk); “++” in the test on Pseudomonas aeruginosa (1000 ug/disk). Further, the Zone of inhibition result with Bacillus subtilis (10 ug/disk) is on record as “+”; in the test on Bacillus subtilis (100 ug/disk), “+”; in the test on Bacillus subtilis (500 ug/disk) it was “+”; in the test with Bacillus subtilis (1000 ug/disk) it was “++”; in the test with Escherichia coli (10 ug/disk), “-”; in the test with Escherichia coli (100 ug/disk) it was “-”. Further, the Zone of inhibition result in the test on Escherichia coli (500 ug/disk) was “+”; in the test on Escherichia coli (1000 ug/disk), “++”; in the test with Propionibacterium acnes (10 ug/disk), “+”; in the test on Propionibacterium acnes (100 ug/disk), “+++”; with Propionibacterium acnes (500 ug/disk) it was “+++”; in the test on Propionibacterium acnes (1000 ug/disk), “+++”. In addition, the Zone of inhibition entry in the test on Staphylococcus aureus (10 ug/disk) is reported as “+”; in the test with Staphylococcus aureus (100 ug/disk) it was “++”; in the test on Staphylococcus aureus (500 ug/disk), “+++”; with Staphylococcus aureus (1000 ug/disk), “+++”. Moreover, the MIC came to 10 µg/mL (≈ 39.9 µM) against Enterobacter aerogens; 10 µg/mL (≈ 39.9 µM) in test [1]; 500 µg/mL (≈ 2000 µM) with Pseudomonas aeruginosa; 10 µg/mL (≈ 39.9 µM) in the test on Bacillus subtilis; 500 µg/mL (≈ 2000 µM) in the test with Escherichia coli; 40 µg/mL (≈ 160 µM) against Propionibacterium acnes. Also, the MIC in the test on Staphylococcus aureus came out at 50 µg/mL (≈ 200 µM); against Candida kefyr, 400 µg/mL (≈ 1600 µM); in the test with Penicillium notatum, 1000 µg/mL (≈ 3990 µM); in the test on Aspergillus flavus, 1000 µg/mL (≈ 3990 µM); against Saccharomyces cerevisiae, 500 µg/mL (≈ 2000 µM). The “activity against Gram positive bacteria” value in test [2] is recorded as “more active against Gram positive bacteria”.

With `C=C[C@](C)(O)CC[C@@H]1[C@@]2(C)CCCC(C)(C)[C@@H]2CC[C@@]1(C)O` [Sclareol, sclareol], the sensitivity to treatment entry is given as “more sensitive” with Enterobacter aerogens; “least sensitive” in the test with Pseudomonas aeruginosa; “least sensitive” in the test with Escherichia coli; “more sensitive” in the test on Propionibacterium acnes; “more sensitive” in the test with Staphylococcus aureus. Moreover, the Zone of inhibition entry in the test with Enterobacter aerogens (10 ug/disk) is reported as “+”; with Enterobacter aerogens (100 ug/disk) it was “+++”; in the test with Enterobacter aerogens (500 ug/disk) it was “+++”; in the test with Enterobacter aerogens (1000 ug/disk), “+++”; in [1] (10 ug/disk) it was “+”; in [1] (100 ug/disk), “++”. For the same compound, the Zone of inhibition result in test [1] (500 ug/disk) is “+++”; in test [1] (1000 ug/disk), “+++”; with Pseudomonas aeruginosa (10 ug/disk), “-”; with Pseudomonas aeruginosa (100 ug/disk), “+”; in the test with Pseudomonas aeruginosa (500 ug/disk), “++”; in the test with Pseudomonas aeruginosa (1000 ug/disk), “++”. The Zone of inhibition entry in the test on Bacillus subtilis (10 ug/disk) was “+”; in the test with Bacillus subtilis (100 ug/disk), “+”; in the test on Bacillus subtilis (500 ug/disk), “++”; with Bacillus subtilis (1000 ug/disk) it was “++”; in the test with Escherichia coli (10 ug/disk), “-”; in the test on Escherichia coli (100 ug/disk) it was “-”. Also, the Zone of inhibition entry in the test on Escherichia coli (500 ug/disk) is “+”; in the test on Escherichia coli (1000 ug/disk), “++”; in the test with Propionibacterium acnes (10 ug/disk), “+”; in the test on Propionibacterium acnes (100 ug/disk), “+++”; with Propionibacterium acnes (500 ug/disk) it was “+++”; in the test with Propionibacterium acnes (1000 ug/disk), “+++”. The Zone of inhibition result in the test with Staphylococcus aureus (10 ug/disk) is “+”; in the test on Staphylococcus aureus (100 ug/disk), “++”; with Staphylococcus aureus (500 ug/disk), “+++”; in the test with Staphylococcus aureus (1000 ug/disk), “+++”. In addition, the MIC against Enterobacter aerogens worked out at 10 µg/mL (≈ 32.4 µM); in test [1], 10 µg/mL (≈ 32.4 µM); in the test on Pseudomonas aeruginosa, 100 µg/mL (≈ 324 µM); against Bacillus subtilis, 10 µg/mL (≈ 32.4 µM); in the test with Escherichia coli, 500 µg/mL (≈ 1620 µM); against Propionibacterium acnes, 40 µg/mL (≈ 130 µM). Further, the MIC came out at 50 µg/mL (≈ 162 µM) with Staphylococcus aureus; 100 µg/mL (≈ 324 µM) in the test with Candida kefyr; 1000 µg/mL (≈ 3240 µM) against Penicillium notatum; 1000 µg/mL (≈ 3240 µM) against Aspergillus flavus; 500 µg/mL (≈ 1620 µM) in the test with Saccharomyces cerevisiae. The “activity against Gram positive bacteria” value in test [2] is listed as “more active against Gram positive bacteria”. The “relative activity against the bacteria tested” value with bacteria tested is “more active than sclareolide”.

On to `CC1(C)S[C@@H]2[C@H](NC(=O)[C@H](N)c3ccc(O)cc3)C(=O)N2[C@H]1C(=O)O` [amoxicillin], for which the “effectiveness in treating gram negative acne” value in the test on gram negative acne is “effective”.

Take `CC1(C)S[C@@H]2[C@H](NC(=O)[C@H](N)c3ccccc3)C(=O)N2[C@H]1C(=O)O` [ampicillin]: the “effectiveness in treating gram negative acne” value with gram negative acne is reported as “effective”.

Broadly, the MIC is the lowest concentration that inhibits growth of the organism.
